Entries after “also recorded” stand apart in the source; their conditions may differ. Starred links: 1 amine or outer side, 2 acyl side, 3 side chain; linkers in the order of their positions; H or OH if unused. Non-standard residues stand in square brackets, D forms with d. Residues, ends and D or L forms follow the SMILES beside them. Groups on a side chain read outwards from the residue. ξ: configuration not given here. *: point of attachment. Oic(3aξ,7aξ) = O=C(O)[C@@H]1CC2CCCCC2N1; hArg = N=C(N)NCCCC[C@H](N)C(=O)O; X1 = N=C(N)NCCCC[C@H](N)CN*; X3 = N=C(N)NCCC[C@H](N)CN*; X2 = N=C(N)NCC[C@H](N)CN*; Orn = NCCC[C@H](N)C(=O)O; Dab = NCC[C@H](N)C(=O)O; CO = O=C([*:1])[*:2]

One data set has as its target T1, VEGF-A165/NRP-1 complex (Homo sapiens, UniProt O14786).
T1 construct: purchased R&D Systems
T1 sequence (O14786 22-641 limits assumed): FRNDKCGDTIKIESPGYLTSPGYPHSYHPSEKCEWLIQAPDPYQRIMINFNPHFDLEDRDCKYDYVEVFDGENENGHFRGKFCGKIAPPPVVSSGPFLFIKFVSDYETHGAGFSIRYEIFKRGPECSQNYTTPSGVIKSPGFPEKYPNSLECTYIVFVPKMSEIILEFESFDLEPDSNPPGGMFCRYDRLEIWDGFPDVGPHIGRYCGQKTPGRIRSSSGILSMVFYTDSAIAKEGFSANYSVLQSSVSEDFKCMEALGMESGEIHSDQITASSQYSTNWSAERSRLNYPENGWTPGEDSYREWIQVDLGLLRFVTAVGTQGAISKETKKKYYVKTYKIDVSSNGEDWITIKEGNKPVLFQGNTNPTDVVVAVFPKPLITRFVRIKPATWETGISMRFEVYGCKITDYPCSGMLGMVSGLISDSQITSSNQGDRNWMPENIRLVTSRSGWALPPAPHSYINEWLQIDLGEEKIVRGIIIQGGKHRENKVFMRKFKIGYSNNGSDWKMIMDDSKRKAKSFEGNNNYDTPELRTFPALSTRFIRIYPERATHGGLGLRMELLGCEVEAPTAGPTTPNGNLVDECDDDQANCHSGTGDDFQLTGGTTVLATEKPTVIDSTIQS
Put plainly: Competitive ELISA-like assay, inhibition of bt-VEGF-A165 binding to immobilized NRP-1. The settings on record: recombinant human NRP-1, bt-VEGF-A165, chemiluminescence; read-out: IC50, VEGF-A165/NRP-1 complex inhibitory effect. The protocol:
Inhibitory activity of urea–peptide hybrids against VEGF-A165/NRP-1 complex formation was assessed with a screening ELISA-like assay. NRP-1 was immobilized on microplate wells by simple adsorption and urea–peptide hybrids competed for NRP-1 with biotinylated VEGF-A165 (bt-VEGF-A165). The amount of receptor bound bt-VEGF-A165 was visualized by its interaction with the streptavidin–horseradish peroxidase conjugate (strep-HRP) and the chemiluminescent substrate. The first analyzed group of compounds were analogues 1–3 with the urea bond between L1 and L2. […] The best hybrid in this group was compound 3, which had Lys^U (gDab) branching (where “g” corresponds to guanidinium group), but its IC50 value decreased only 2-fold. Therefore, we assume that no additional interactions between urea bond and the surface of the protein occurred. […] In the case of urea–peptide hybrids, the urea bond might be capable of forming additional hydrogen bonds with protein residues on the surface of NRP-1. The affinity of compounds may conceivably be affected by the colocation of the urea bond and the free amino group of hArg in the branching. In addition, for compounds 4–6, we can observe that decreasing the distance between the free amino group in the main chain and the urea bond in the branching has a positive effect on compounds’ affinity for NRP-1.
This method was previously described for NRP-1 [44, 45, 46]. Briefly, overnight coating at 4 °C of the flat bottom surface of a 96-well plate with 100 μL (200 ng/well) recombinant human NRP-1, NRP-2, VEGFR-1 or VEGFR-2 was followed by non-specific interactions blocking using 0.5% bovine serum albumin (BSA) in PBS. Next, 50 µL of urea–peptide hybrid in PBS and 50 µL (400 ng/mL) of human (bt)-VEGF-A165 in PBS containing 4 µg/mL of heparin were added respectively. Plates were incubated for 2 h at RT, and then washed and treated with streptavidin-horseradish peroxidase conjugate in PBS (1:8000). Next, 100 µL chemiluminescent substrate was added, and luminescence was quantified using Tecan Infinite F200Pro microplate reader (Männedorf, Switzerland). In a positive control (P) only (bt)-VEGF-A165 was present in wells. Not coated by receptor wells were treated as a negative control (N). Percentages of inhibition were calculated by the following formula:100% − [[(S − N)/(P − N)]∙100%](1) where S is the signal intensity measured in wells with urea–peptide hybrid. The IC50 of each urea–peptide hybrid was calculated using the nonlinear regression function with GraphPad Prism Version-5.01 (GraphPad Software, San Diego, CA, USA). Data are presented as log (inhibitor) versus normalized response-variable slope (Figure S16). Data are the means ± SEMs of two or three independent experiments, each performed in triplicate.
A general note: In an ELISA, binding on a coated surface is turned into a signal by an enzyme label.
On to `N=C(N)NCCCC[C@H](N)C(=O)NCC[C@H](N)CNC(=O)N[C@@H](CCN)C(=O)N1C2CCCCC2C[C@H]1C(=O)N[C@@H](CCCNC(=N)N)C(=O)O` (some centres unmarked) [Compound 1], for which the IC50 is 1800 nM.
As for `N=C(N)NCCC[C@H](NC(=O)[C@@H]1CC2CCCCC2N1C(=O)[C@H](CCN)NC(=O)NC[C@@H](N)CCCNC(=O)[C@@H](N)CCCNC(=N)N)C(=O)O` (some centres unmarked) [Compound 2], the IC50 worked out at 2100 nM.
Same read-out and setting: the same measure for `N=C(N)NCCC[C@H](NC(=O)[C@@H]1CC2CCCCC2N1C(=O)[C@H](CCN)NC(=O)NC[C@@H](N)CCCCNC(=O)[C@@H](N)CCNC(=N)N)C(=O)O` (some centres unmarked) [Compound 3]: 1200 nM.
Still for that read-out and setting: the same measure for `N=C(N)NCCC[C@H](NC(=O)[C@@H]1CC2CCCCC2N1C(=O)[C@H](CCN)NC(=O)[C@@H](N)CCCCNC(=O)NC[C@@H](N)CCNC(=N)N)C(=O)O` (some centres unmarked) [Compound 4] (H-K([CO-X2])[Dab][Oic(3aξ,7aξ)]R-OH): 490 nM; for `N=C(N)NCCC[C@H](N)CNC(=O)NCCC[C@H](N)C(=O)N[C@@H](CCN)C(=O)N1C2CCCCC2C[C@H]1C(=O)N[C@@H](CCCNC(=N)N)C(=O)O` (some centres unmarked) [Compound 5] (H-[Orn]([CO-X3])[Dab][Oic(3aξ,7aξ)]R-OH): 360 nM.
As for `N=C(N)NCCC[C@H](N)CNC(=O)NC[C@H](N)CNC(=O)N[C@@H](CCN)C(=O)N1C2CCCCC2C[C@H]1C(=O)N[C@@H](CCCNC(=N)N)C(=O)O` (some centres unmarked) [Compound 7], the IC50 stood at 2100 nM.
On the same count and under the same terms, the same measure for `N=C(N)NCCC[C@H](NC(=O)[C@@H]1CC2CCCCC2N1C(=O)[C@H](CCN)NC(=O)NC[C@@H](N)CCNC(=O)NC[C@@H](N)CCNC(=N)N)C(=O)O` (some centres unmarked) [Compound 8]: 2100 nM.
Still for that read-out and setting: the result for `N=C(N)NCCC[C@H](NC(=O)[C@@H]1CC2CCCCC2N1C(=O)[C@H](CCN)NC(=O)NC[C@@H](N)CCCNC(=O)NC[C@@H](N)CNC(=N)N)C(=O)O` (some centres unmarked) [Compound 9] reads 1800 nM.

System in the next data set: not listed separately
Put plainly: Human blood serum. Particulars: 37 °C, up to 96 h.
On to H2N-DapU(ArgU)-Dab-Oic-Arg-OH, for which the cleaved bond entry was “OicL3-ArgL4” and the not cleaved entry is given as “urea bonds remained intact within the monitored time of the experiment”.
On to H2N-LysU(gDab)-Dab-Oic-Arg-OH, for which the cleaved bond result is reported as “gDabL1'-Lys^UL1; also recorded: OicL3-ArgL4”, the fragment found result is listed as “C25H49N10O5+ (RT 5.43 min)” and the not cleaved result is recorded as “urea bonds remained intact within the monitored time of the experiment”.
For “H-Dab(hArg^U)Dab-Oic-Arg-OH (H-[Dab]([CO-X1])[Dab][Oic(3aξ,7aξ)]R-OH; SMILES N=C(N)NCCCC[C@H](N)CNC(=O)NCC[C@H](N)C(=O)N[C@@H](CCN)C(=O)N1C2CCCCC2C[C@H]1C(=O)N[C@@H](CCCNC(=N)N)C(=O)O)”, in that order: “OicL3-ArgL4; also recorded: DabL1-DabL2”, “C25H49N10O5+ (RT 5.36/5.72 min); also recorded: C25H46N10O4+ (RT 6.44/6.64 min); also recorded: C19H36N7O4+ (RT 3.53 min); also recorded: C12H27N7O3+ (RT 1.21 min)” and “urea bonds remained intact within the monitored time of the experiment”.
As to “Lys(hArg)-Dab-Oic-Arg (H-K(hArg)[Dab][Oic(3aξ,7aξ)]R-OH)”, the cleaved bond entry is given as “hArgL1'-LysL1, major; also recorded: LysL1-DabL2; also recorded: OicL3-ArgL4” and the fragment found result is given as “C25H48N9O5+ (RT 2.87 min); also recorded: C19H36N7O4+ (RT 3.54 min)”.

System in a further data set: not listed separately
Put plainly: In vitro enzymatic stability in human blood serum (LC-SWATH-MS). In kind it is in vitro ADME. Particulars: human blood serum (pooled from four healthy persons), 37 °C, after 24 h, read-out: initial substrate concentration remaining. Here is the method:
Rapid renal clearance and enzymatic degradation are classified as most important disadvantages of peptides as drugs. Covalent linkage to plasma proteins or chemical modifications, including amide bond modifications, might improve their half-lives. We performed proteolytic stability studies in human blood serum to investigate whether the introduction of urea bonds affected the half-lives of compounds from each of synthesized group of hybrids. Compounds 3, 6 and 7 were incubated with human serum at 37 °C. Samples were taken at different time intervals and analyzed using LC-SWATH-MS [88, 89, 90]. […] Hybrids 6 and 7 were stable toward enzymatic degradation, with 50% of each compound still being intact after 96 h (Figure 5). […] Overall, it can be concluded that the substitution of an amide bond with a urea bond has a positive effect on the proteolytic stability of the examined inhibitors.
The study was conducted in full accordance with ethical principles in accordance with the ICH E6 (R2) Guideline for Good Clinical Practice and the Code of Good Customs in Science developed by the Polish Academy of Sciences. Signed consent for using serum was obtained from volunteers. The Rector’s Commission for Ethics of Scientific Research with Human Participation, University of Warsaw, Warsaw, Poland gave the ethical approval (approval number 51/2020). Human blood from four healthy persons was directly drawn into evacuated tubes and left undisturbed at room temperature for 1 h to clot. Tubes were centrifuged at 2500× g for 10 min to prevent possible platelet activation. Serum was pipetted out of the blood collection tubes, pooled and collected in microtubes.
A degradation assay was adapted from a method described previously. Human blood serum was preactivated in Eppendorf ThermoMixer® Comfort (Hamburg, Germany) at 37 °C for 20 min (350 rpm). Next, 20 μL of aqueous urea–peptide hybrid stock solution was added to give ∼750 μg/mL final compound concentration, and incubation was continued. At selected time intervals, 50 μL of the mixture was collected and quenched by adding 200 μL of ACN:H2O:FA mixture (89:10:1, v:v:v). The obtained suspension was vortexed for 1 min (3000 min^−1) and centrifuged for 10 min in 4 °C (11,000× g). 100 μL of supernatant was collected and lyophilized. The samples reconstituted in 1 mL of 10 mM ammonium formate with 0.1% FA were subjected to LC-MS. Relative concentration at time intervals was calculated using peak area of either individual or most intense fragment of compound of interest. Analyst software version 1.7.1 was used for data acquisition, Peak View 2.2 and MultiQuant 2.1 (Sciex, ON) were used for data processing. Detailed analytical data can be found in Supplementary Materials (Figures S17–S45). […]
As for `N=C(N)NCCC[C@H](NC(=O)[C@@H]1CC2CCCCC2N1C(=O)[C@H](CCN)NC(=O)NC[C@@H](N)CCCCNC(=O)[C@@H](N)CCNC(=N)N)C(=O)O` (some centres unmarked) [Compound 3], the remaining at 24 h was approximately 25%.

Staying with this data set, now noted: human blood serum (pooled from four healthy persons), 37 °C, after 96 h, read-out: compound still intact.
Take `N=C(N)NCCC[C@H](N)CNC(=O)NC[C@H](N)CNC(=O)N[C@@H](CCN)C(=O)N1C2CCCCC2C[C@H]1C(=O)N[C@@H](CCCNC(=N)N)C(=O)O` (some centres unmarked) [Compound 7]: the remaining at 96 h stood at 50%.

The values are drawn from paper PMC7793531 (International Journal of Molecular Sciences, 2020).
